Results on 3 compounds are retold here after BindingDB's records for doi:10.1042/BJ20030674 (University of Padova, 2003).

For orientation: IC50 means the concentration that gives 50% inhibition.

The nature of the assay: In vitro kinase assay using purified enzyme, was incubated at room temperature with substrate, and test compounds in the presence of 100 uM ATP/ [gamma-33P] ATP. 33P incorporation was measured with scintillation counter. IC50 values were calculated from dose-response curves; from these calculated apparent inhibition constants (Ki) were obtained usin. To be noted: pH 7.5.
Turning to `NCCNc1cc(-c2ccnc(Nc3cccc(Cl)c3)n2)ccn1` [4-{2-[(2-aminoethyl)amino]pyridin-4-yl}-N-(3-chlorophenyl)pyrimidin-2-amine], the concentration for half-maximal inhibition (IC50) was 9.6 µM.

On to `OCCCNc1cc(-c2ccnc(Nc3cccc(OC(F)(F)C(F)F)c3)n2)ccn1` [3-{[4-(2-{[3-(1,1,2,2-tetrafluoroethoxy)phenyl]amino}pyrimidin-4-yl)pyridin-2-yl]amino}propan-1-ol], for which the 50% inhibitory concentration (IC50) was 3.6 µM.

For `Clc1cccc(Nc2nccc(-c3ccnc(NCCc4cnc[nH]4)c3)n2)c1` [N-(3-chlorophenyl)-4-(2-{[2-(1H-imidazol-4-yl)ethyl]amino}pyridin-4-yl)pyrimidin-2-amine], the concentration for half-maximal inhibition (IC50) was 3.2 µM.
